Data reported in ChEMBL document CHEMBL1201862, “PubChem BioAssay data set” (2004).
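Five concentrations, 48 hours, 96-well plates. At the GI50, growth is halved.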 Active and inactive are the calls of the source. Cut-off read from the data, not from the text of the source: active = GI50 up to about 1.1 µM and inactive = higher.

Tests used:
Experiment in all cases: NCI anticancer screen, dose series, 48 h
SK-MEL-5 = test system: SK-MEL-5
OVCAR-8 = test system: OVCAR-8
IGROV-1 = test system: IGROV-1
SF-268 = test system: SF-268
HOP-62 = test system: HOP-62
NCI-H226 = test system: NCI-H226
SNB-78 = test system: SNB-78
SK-OV-3 = test system: SK-OV-3
SNB-19 = test system: SNB-19
MOLT-4 = test system: MOLT-4
HCT-116 = test system: HCT-116
UACC-257 = test system: UACC-257
SK-MEL-28 = test system: SK-MEL-28
ACHN = test system: ACHN
786-0 = test system: 786-0
SR = test system: SR

Measured: GI50

COc1ccc2c(c1)CC1c3c(cc4c(c3-2)OCO4)CCN1C (stereo not given)
inactive: SK-MEL-5 16.9 µM | OVCAR-8 21.6 µM | IGROV-1 31.7 µM | SF-268 > 10 µM | HOP-62 30.1 µM | NCI-H226 24.6 µM | SNB-78 40.7 µM | SK-OV-3 21.3 µM | SNB-19 42 µM | MOLT-4 20 µM | HCT-116 19.5 µM | UACC-257 24.1 µM | SK-MEL-28 28.8 µM | ACHN 16.9 µM | 786-0 27.6 µM

COC(=O)C1C=NNC1C(=O)OC (stereo not given)
inactive: SK-MEL-5 > 100 µM | OVCAR-8 > 100 µM | IGROV-1 > 100 µM | SF-268 > 100 µM | HOP-62 > 100 µM | NCI-H226 > 100 µM | SNB-78 > 100 µM | SK-OV-3 > 100 µM | SNB-19 57.3 µM | MOLT-4 > 100 µM | HCT-116 > 100 µM | UACC-257 > 100 µM | ACHN > 100 µM | 786-0 > 100 µM

Nc1ccc(C(=O)NN2C(=O)C(Cl)C2c2ccccc2O)cc1 (stereo not given)
inactive: SK-MEL-5 47.4 µM | OVCAR-8 42.3 µM | IGROV-1 > 100 µM | SF-268 70.1 µM | HOP-62 65.2 µM | NCI-H226 69.2 µM | SNB-78 > 100 µM | SK-OV-3 71.6 µM | SNB-19 > 100 µM | MOLT-4 22.5 µM | HCT-116 60.5 µM | UACC-257 > 100 µM | SK-MEL-28 > 100 µM | ACHN 39.2 µM | 786-0 30.2 µM

CC(C)(C)OC(=O)Cc1ccc2c(ccn2Cc2ccccc2)c1
inactive: SK-MEL-5 31.4 µM | OVCAR-8 60.3 µM | IGROV-1 > 100 µM | SF-268 66.4 µM | HOP-62 > 100 µM | NCI-H226 35.7 µM | SNB-78 > 100 µM | SK-OV-3 > 100 µM | SNB-19 > 100 µM | MOLT-4 18 µM | HCT-116 25.2 µM | UACC-257 39.9 µM | SK-MEL-28 > 100 µM | ACHN > 100 µM | 786-0 73.8 µM

CN(C(=O)C1CC1)C1C2CN3CCC(O2)C13 (stereo not given)
inactive: SK-MEL-5 > 100 µM | IGROV-1 > 100 µM | SF-268 > 100 µM | HOP-62 > 100 µM | NCI-H226 > 100 µM | SNB-78 94.4 µM | SK-OV-3 > 100 µM | SNB-19 > 100 µM | MOLT-4 > 100 µM | HCT-116 > 100 µM | UACC-257 > 100 µM | SK-MEL-28 > 100 µM | ACHN > 100 µM | 786-0 > 100 µM

COC(=O)/C(C#N)=C1\NN=NN1CCCN1CCOCC1
inactive: SK-MEL-5 > 100 µM | OVCAR-8 > 100 µM | IGROV-1 > 100 µM | NCI-H226 > 100 µM | SNB-78 > 100 µM | SK-OV-3 > 100 µM | SNB-19 > 100 µM | MOLT-4 > 100 µM | HCT-116 > 100 µM | UACC-257 > 100 µM | SK-MEL-28 > 100 µM | ACHN > 100 µM | 786-0 > 100 µM

C/C(=N/O)c1sc(-c2nc(C)c(/C(C)=N\O)s2)nc1C
inactive: SK-MEL-5 > 100 µM | SR > 100 µM | OVCAR-8 > 100 µM | IGROV-1 > 100 µM | SF-268 > 100 µM | NCI-H226 > 100 µM | SNB-78 > 100 µM | SK-OV-3 > 100 µM | SNB-19 > 100 µM | MOLT-4 > 100 µM | HCT-116 > 100 µM | UACC-257 > 100 µM | SK-MEL-28 > 100 µM | ACHN > 100 µM | 786-0 > 100 µM

CC(=O)Oc1c(Br)ccc2cc(C(Br)Br)c(C(=O)c3ccccc3)nc12
inactive: SK-MEL-5 19.1 µM | SR 28.1 µM | OVCAR-8 23.6 µM | IGROV-1 29.1 µM | SF-268 25.7 µM | HOP-62 19.1 µM | NCI-H226 19.7 µM | SNB-78 27.7 µM | SNB-19 19.9 µM | MOLT-4 20.7 µM | HCT-116 21.8 µM | UACC-257 1.88 µM | SK-MEL-28 15.9 µM | ACHN 22.1 µM | 786-0 22.6 µM

C=C(C)C1CC[C@]2(C(=O)O)CCC3(C)[C@H](CCC4[C@@]5(C)CC[C@H](OC6OC(CO)C(O)C6OC6OC(C)C(O)C(O)C6O)[C@@](C)(CO)C5CC[C@]43C)C12 (stereo not given in full)
inactive: SK-MEL-5 > 100 µM | SR > 100 µM | OVCAR-8 > 100 µM | IGROV-1 > 100 µM | SF-268 > 100 µM | HOP-62 > 100 µM | NCI-H226 > 100 µM | SNB-78 > 100 µM | SNB-19 > 100 µM | MOLT-4 > 100 µM | HCT-116 > 100 µM | SK-MEL-28 > 100 µM | ACHN > 100 µM | 786-0 > 100 µM

C1CC2=C(C1)C1=S(S2)SC2=C1CCC2
inactive: SK-MEL-5 > 100 µM | OVCAR-8 > 100 µM | IGROV-1 > 100 µM | SF-268 > 100 µM | NCI-H226 > 100 µM | SNB-78 > 100 µM | SK-OV-3 > 100 µM | SNB-19 > 100 µM | MOLT-4 > 100 µM | HCT-116 > 100 µM | UACC-257 > 100 µM | SK-MEL-28 > 100 µM | ACHN 45.7 µM | 786-0 > 100 µM

Oc1nc(S)nc2c1CCCN2
inactive: SK-MEL-5 > 100 µM | SR > 100 µM | OVCAR-8 > 100 µM | IGROV-1 > 100 µM | SF-268 > 100 µM | HOP-62 > 100 µM | SNB-78 > 100 µM | SK-OV-3 > 100 µM | SNB-19 > 100 µM | MOLT-4 > 100 µM | HCT-116 > 100 µM | UACC-257 > 100 µM | SK-MEL-28 > 100 µM | ACHN > 100 µM | 786-0 > 100 µM

COc1nc(NC2OCC(OC(C)=O)C(OC(C)=O)C2OC(C)=O)c(/N=C\C=N\c2c(NC3OCC(OC(C)=O)C(OC(C)=O)C3OC(C)=O)nc(OC)n(C)c2=O)c(=O)n1C (stereo not given)
inactive: SK-MEL-5 > 100 µM | SR > 100 µM | OVCAR-8 > 100 µM | IGROV-1 > 100 µM | SF-268 > 100 µM | HOP-62 > 100 µM | SNB-78 > 100 µM | SK-OV-3 > 100 µM | SNB-19 > 100 µM | HCT-116 > 100 µM | UACC-257 > 100 µM | SK-MEL-28 > 100 µM | ACHN > 100 µM | 786-0 > 100 µM

CC(C)=C1CCC(CN(C)C)C1=O (stereo not given)
inactive: SK-MEL-5 15.6 µM | SR 12.4 µM | OVCAR-8 22.3 µM | IGROV-1 > 100 µM | SF-268 31.5 µM | SNB-78 > 10 µM | SNB-19 > 100 µM | MOLT-4 12.1 µM | HCT-116 12.9 µM | UACC-257 17.5 µM | SK-MEL-28 18.2 µM | ACHN 17.7 µM | 786-0 12.6 µM

CN(/N=C/c1ccnc2ccccc12)c1ccc([N+](=O)[O-])cc1[N+](=O)[O-]
inactive: SK-MEL-5 > 100 µM | OVCAR-8 > 100 µM | IGROV-1 > 100 µM | SF-268 > 100 µM | HOP-62 30.3 µM | NCI-H226 > 100 µM | SNB-78 42.3 µM | SK-OV-3 47.5 µM | SNB-19 77.4 µM | MOLT-4 > 100 µM | UACC-257 > 100 µM | SK-MEL-28 87.7 µM | ACHN > 100 µM | 786-0 30.6 µM
